Measured values reported in patent publication US9365566B2 (Takeda Pharmaceutical Company Limited, priority 2012, dated 2016).

Molecular target: T1, human BTK (Homo sapiens, UniProt Q06187)
T1 construct: GST (Glutathione-S-Transferase) (cleaved yes); made in house; host or cells: Spodoptera frugiperda Sf9 cells (baculovirus, Bac-to-Bac)
Test: BTK inhibition assay: BTK-mediated phosphorylation of FAM-labeled substrate 5-FAM-EEPLYWSFPAKKK-NH2 (Caliper LC-3000)
Format: biochemical
Settings: pIC50 = -log(IC50), IC50 molar; residues 382 to 659 of human BTK; incubated at room temperature for 60 minutes; larger values represent higher potency
Text: The activity of compounds as BTK inhibitors may be determined by a variety of methods, including in vitro and in vivo methods.
This construct engineers an in-frame translational fusion with the Glutathione-S-Transferase (GST) protein for use in affinity purification. The fusion protein derived from this construct contains a protease recognition sequence to liberate the BTK from the GST affinity tag. High-titer baculoviral stocks, generated using the Bac-to-Bac® system (Invitrogen), are used to express the recombinant protein in Spodoptera frugiperda Sf9 cells in 10 L Wave bags. Recombinant proteins are isolated from cellular extracts by passage over Glutathione Sepharose 4B (GE Healthcare) and the BTK moiety is released from the GST affinity tag by treatment with PreScission protease. The BTK recombinant protein is further purified by size exclusion chromatography (HiLoad 16/60 Superdex 200, GE Healthcare) in a buffer containing 20 mM Hepes (pH 7.4), 50 mM NaCl, 10 mM MgCl2, 0.25 mM TCEP and 0.1 mM EDTA. The purity of the fractions is assessed by SDS PAGE and the peak protein fractions are pooled and concentrated using Amicon Ultra-15 Centrifugal Filter Devices (Millipore).
The inhibitory properties of compounds relative to BTK is determined using a black 384-well-plate format in a buffer which contains 50 mM Hepes, 10 mM NaCl, 10 mM MgCl2, 0.2 mM EDTA, 0.01% Brij35®, 1 mM DTT, and 0.1 mg/mL BSA at pH 7.3. The test compound is prepared in DMSO using 2-fold serial dilutions for 11 data points, which are added to the buffer so that each dilution contains 3% DMSO. […] The reaction mixtures are incubated at room temperature for 60 minutes and then quenched by adding 25 μL of 50 mM EDTA. To quantify the fluorescent-labeled substrate and product following reaction, the test plate is loaded on a Caliper LC-3000, which measures percent of conversion by microfluidic-based separation.
The compounds were tested in accordance with the assay described on page 34 of the specification.

T1 sequence (Q06187 382-659): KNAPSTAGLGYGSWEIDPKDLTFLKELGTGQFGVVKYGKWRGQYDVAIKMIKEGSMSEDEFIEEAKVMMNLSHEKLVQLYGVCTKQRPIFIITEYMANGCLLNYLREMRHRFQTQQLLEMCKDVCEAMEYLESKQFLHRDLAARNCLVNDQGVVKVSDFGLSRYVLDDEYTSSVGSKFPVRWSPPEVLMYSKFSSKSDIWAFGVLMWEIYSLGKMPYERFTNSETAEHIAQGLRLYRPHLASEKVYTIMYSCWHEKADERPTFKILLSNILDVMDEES

Row | IC50 [nM] | SMILES
1 | 3.98 | Cc1ccc2c(N)c(C(N)=O)nnc2c1-c1ccn2cncc2c1 [Example 114, 4-amino-8-(imidazo[1,5-a]pyridin-7-yl)-7-methylcinnoline-3-carboxamide]
2 | 2 | COc1cc2cn[nH]c2cc1-c1ccc(F)c2c(N)c(C(N)=O)nnc12 [Example 111, 4-amino-5-fluoro-8-(5-methoxy-1H-indazol-6-yl)cinnoline-3-carboxamide]
3 | 50.1 | Cc1ccc2c(N)c(C(N)=O)nnc2c1-c1cc(C)c2c(cnn2C)c1 [Example 32, 4-amino-8-(1,7-dimethyl-1H-indazol-5-yl)-7-methylcinnoline-3-carboxamide]
4 | 10 | Cc1cc2cn[nH]c2cc1-c1cc(F)cc2c(N)c(C(N)=O)nnc12 [Example 136, 4-amino-6-fluoro-8-(5-methyl-1H-indazol-6-yl)cinnoline-3-carboxamide]
5 | 316 | NC(=O)c1nnc2c(-c3cnc4cc[nH]c4c3)cccc2c1N [Example 3, 4-amino-8-(1H-pyrrolo[3,2-b]pyridin-6-yl)cinnoline-3-carboxamide]
6 | 6.31 | Cc1cc2cn[nH]c2cc1-c1ccc(F)c2c(N)c(C(N)=O)nnc12 [Example 43, 4-amino-5-fluoro-8-(5-methyl-1H-indazol-6-yl)cinnoline-3-carboxamide]
7 | 79.4 | NC(=O)c1nnc2c(-c3ccc4nc[nH]c4c3)cccc2c1N [Example 4, 4-amino-8-(1H-benzo[d]imidazol-6-yl)cinnoline-3-carboxamide]
8 | 5010 | Cc1ccc2c(N)c(C(N)=O)nnc2c1-c1cnc2c(c1)ncn2C [Example 98, 4-amino-7-methyl-8-(3-methyl-3H-imidazo[4,5-b]pyridin-6-yl)cinnoline-3-carboxamide]
9 | 15800 | Cn1cnc2cc(-c3cccc4c(N)c(C(N)=O)nnc34)ccc21 [Example 12, 4-amino-8-(1-methyl-1H-benzo[d]imidazol-5-yl)cinnoline-3-carboxamide]
10 | 7.94 | Cc1ccc2c(N)c(C(N)=O)nnc2c1-c1ccc2c(c1)CN(CCC(C)(C)O)C2=O [Example 128, 4-amino-8-(2-(3-hydroxy-3-methylbutyl)-1-oxoisoindolin-5-yl)-7-methylcinnoline-3-carboxamide]
11 | 126 | NC(=O)c1nnc2c(-c3ccc4nc(-c5cn6ccccc6n5)[nH]c4c3)cccc2c1N [Example 75, 4-amino-8-(2-(imidazo[1,2-a]pyridin-2-yl)-1H-benzo[d]imidazol-6-yl)cinnoline-3-carboxamide]
12 | 79.4 | NC(=O)c1nnc2c(-c3ccc4nc(-c5ccccc5)[nH]c4c3)cccc2c1N [Example 115, 4-amino-8-(2-phenyl-1H-benzo[d]imidazol-6-yl)cinnoline-3-carboxamide]
13 | 5.01 | CCc1ccc2c(N)c(C(N)=O)nnc2c1-c1ccc2c(c1)CNC2=O [Example 129, 4-amino-7-ethyl-8-(1-oxoisoindolin-5-yl)cinnoline-3-carboxamide]
14 | 316 | NC(=O)c1nnc2c(-c3ccc4nc(-c5cccc(C(F)(F)F)c5)[nH]c4c3)cccc2c1N [Example 71, 4-amino-8-(2-(3-(trifluoromethyl)phenyl)-1H-benzo[d]imidazol-6-yl)cinnoline-3-carboxamide]
15 | 25.1 | Cc1ccc2c(N)c(C(N)=O)nnc2c1-c1ccc2nc(-c3ccc(F)cc3)[nH]c2c1 [Example 120, 4-amino-8-(2-(4-fluorophenyl)-1H-benzo[d]imidazol-6-yl)-7-methylcinnoline-3-carboxamide]
16 | 1580 | Cn1ncc2cc(-c3cc(C(F)(F)F)cc4c(N)c(C(N)=O)nnc34)ccc21 [Example 34, 4-amino-8-(1-methyl-1H-indazol-5-yl)-6-(trifluoromethyl)cinnoline-3-carboxamide]
17 | 3980 | Cn1ccc2cc(-c3cccc4c(N)c(C(N)=O)nnc34)ccc21 [Example 5, 4-amino-8-(1-methyl-1H-indol-5-yl)cinnoline-3-carboxamide]
18 | 63.1 | Cc1ccc(CNc2nc3ccc(-c4cccc5c(N)c(C(N)=O)nnc45)cc3[nH]2)cc1 [Example 95, 4-amino-8-(2-(4-methylbenzylamino)-1H-benzo[d]imidazol-6-yl)cinnoline-3-carboxamide]
19 | 3160 | NC(=O)c1nnc2c(-c3cc(F)c4c(c3)CC(=O)N4)cccc2c1N [Example 6, 4-amino-8-(7-fluoro-2-oxoindolin-5-yl)cinnoline-3-carboxamide]

Row | IC50 [nM] | SMILES
20 | 25.1 | Cc1ccc2c(N)c(C(N)=O)nnc2c1-c1ccc2c(F)n[nH]c2c1 [Example 100, 4-amino-8-(3-fluoro-1H-indazol-6-yl)-7-methylcinnoline-3-carboxamide]
21 | 631 | NC(=O)c1nnc2c(-c3ccc4[nH]c(=O)[nH]c4c3)cccc2c1N [Example 14, 4-amino-8-(2-oxo-2,3-dihydro-1H-benzo[d]imidazol-5-yl)cinnoline-3-carboxamide]
22 | 63.1 | NC(=O)c1nnc2c(-c3ccc4nc(NCC5CC5)[nH]c4c3)cccc2c1N [Example 65, 4-amino-8-(2-((cyclopropylmethyl)amino)-1H-benzo[d]imidazol-6-yl)cinnoline-3-carboxamide]
23 | 794 | NC(=O)c1nnc2c(-c3ccc4nc(C5CCCOC5)[nH]c4c3)cccc2c1N (centres unmarked) [Example 83, 4-amino-8-(2-(tetrahydro-2H-pyran-3-yl)-1H-benzo[d]imidazol-6-yl)cinnoline-3-carboxamide]
24 | 10 | COc1cc(C)c(-c2ccc3cn[nH]c3c2)c2nnc(C(N)=O)c(N)c12 [Example 42, 4-amino-8-(1H-indazol-6-yl)-5-methoxy-7-methylcinnoline-3-carboxamide]
25 | 31.6 | Cc1ccc2c(N)c(C(N)=O)nnc2c1-c1ccc2c(cnn2C)c1 [Example 25, 4-amino-7-methyl-8-(1-methyl-1H-indazol-5-yl)cinnoline-3-carboxamide]
26 | 25.1 | Cc1ccc2c(N)c(C(N)=O)nnc2c1-c1ccc2c(c1)CCNC2=O [Example 63, 4-amino-7-methyl-8-(1-oxo-1,2,3,4-tetrahydroisoquinolin-6-yl)cinnoline-3-carboxamide]
27 | 12.6 | Cc1cc(F)c2c(N)c(C(N)=O)nnc2c1-c1ccc2cn[nH]c2c1 [Example 56, 4-amino-5-fluoro-8-(1H-indazol-6-yl)-7-methylcinnoline-3-carboxamide]
28 | 1260 | NC(=O)c1nnc2c(-c3ccc4c(c3)ncn4C3CCCCC3)cccc2c1N [Example 18, 4-amino-8-(1-cyclohexyl-1H-benzo[d]imidazol-5-yl)cinnoline-3-carboxamide]
29 | 316 | Cc1c(-c2cccc3c(N)c(C(N)=O)nnc23)ccc2c1cnn2C [Example 30, 4-amino-8-(1,4-dimethyl-1H-indazol-5-yl)cinnoline-3-carboxamide]
30 | 501 | Cc1cc2cnn(C)c2cc1-c1cccc2c(N)c(C(N)=O)nnc12 [Example 44, 4-amino-8-(1,5-dimethyl-1H-indazol-6-yl)cinnoline-3-carboxamide]
31 | 1580 | NC(=O)c1nnc2c(-c3ccc4[nH]ccc4c3)cccc2c1N [Example 27, 4-amino-8-(1H-indol-5-yl)cinnoline-3-carboxamide]
32 | 15800 | CC(C)(C)n1cnc2cc(-c3cccc4c(N)c(C(N)=O)nnc34)ccc21 [Example 19, 4-amino-8-(1-tert-butyl-1H-benzo[d]imidazol-5-yl)cinnoline-3-carboxamide]
33 | 501 | Cc1ccc2c(N)c(C(N)=O)nnc2c1-c1ccc2c(C3CC3)n[nH]c2c1 [Example 106, 4-amino-8-(3-cyclopropyl-1H-indazol-6-yl)-7-methylcinnoline-3-carboxamide]
34 | 3.98 | COc1cc2[nH]ncc2cc1-c1cccc2c(N)c(C(N)=O)nnc12 [Example 103, 4-amino-8-(6-methoxy-1H-indazol-5-yl)cinnoline-3-carboxamide]
35 | 12.6 | Cc1cc(F)c2c(N)c(C(N)=O)nnc2c1-c1ccc2c(c1)CNC2=O [Example 126, 4-amino-5-fluoro-7-methyl-8-(1-oxoisoindolin-5-yl)cinnoline-3-carboxamide]
36 | 501 | Cc1ccc2c(N)c(C(N)=O)nnc2c1-c1ccc2ncn(CCC#N)c2c1 [Example 133, 4-amino-8-(1-(2-cyanoethyl)-1H-benzo[d]imidazol-6-yl)-7-methylcinnoline-3-carboxamide]
37 | 39.8 | NC(=O)c1nnc2c(-c3ccc4nc(-c5ccc(F)cc5)[nH]c4c3)cccc2c1N [Example 116, 4-amino-8-(2-(4-fluorophenyl)-1H-benzo[d]imidazol-6-yl)cinnoline-3-carboxamide]
38 | 50.1 | Cc1ccc2c(N)c(C(N)=O)nnc2c1-c1cc(C)c2[nH]ncc2c1 [Example 33, 4-amino-7-methyl-8-(7-methyl-1H-indazol-5-yl)cinnoline-3-carboxamide]
